Results reported in US11168093B2, “Thienopyridine inhibitors of RIPK2” (Celgene Corporation, priority 2018, dated 2021).

Molecular target: RIPK2 enzyme (Homo sapiens (Human), UniProt O43353)
Assay: RIPK2 inhibition assay, TR-FRET LanthaScreen Tracer 199 screening assay
Format: binding
Conditions: 5 nM RIPK2 enzyme, Tracer 199 at 50 nM, Eu-anti-His Antibody at 2 nM, 1 hour incubation
Description: All data was collected using a standard TR-FRET screening assay: LanthaScreen Tracer 199 at 50 nM, Eu-anti-His Antibody at 2 nM, 5 nM RIPK2 enzyme, and 1× Kinase Reaction Buffer. There was a 1 hour incubation prior to read. TR-FRET signal of the interaction (340Ex/665Em/615Em) was read at room temperature with standard setting. Background was subtracted of wells containing no enzyme. Percent inhibition was based on uninhibited controls log (inhibitor) vs. response. Variable slope equation was used with no constraints: Log Y=Bottom+(Top−Bottom)/(1+10^((Log IC50−X)*Hill Slope)).
The compound numbers correspond to the compound numbers above.

Sequence of RIPK2 enzyme (O43353 whole entry): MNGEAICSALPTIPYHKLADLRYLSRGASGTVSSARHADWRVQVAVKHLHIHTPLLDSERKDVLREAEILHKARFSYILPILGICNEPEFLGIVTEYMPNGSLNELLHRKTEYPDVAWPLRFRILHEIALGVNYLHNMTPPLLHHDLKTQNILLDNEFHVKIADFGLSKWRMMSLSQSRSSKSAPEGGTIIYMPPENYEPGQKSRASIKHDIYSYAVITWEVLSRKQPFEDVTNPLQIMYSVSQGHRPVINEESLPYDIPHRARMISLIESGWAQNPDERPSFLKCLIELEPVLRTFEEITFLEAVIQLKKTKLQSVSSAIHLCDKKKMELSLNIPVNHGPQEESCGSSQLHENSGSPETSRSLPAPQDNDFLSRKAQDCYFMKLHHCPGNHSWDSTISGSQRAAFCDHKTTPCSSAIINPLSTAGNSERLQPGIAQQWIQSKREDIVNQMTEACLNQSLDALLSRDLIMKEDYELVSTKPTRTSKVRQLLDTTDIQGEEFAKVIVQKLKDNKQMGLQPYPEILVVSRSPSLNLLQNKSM

Row | IC50 [nM] | Structure (SMILES)
1 | ≤ 10 | C1=C(c2cc3c(Nc4ccc5scnc5c4)ccnc3s2)C2(CCOC2)NC1 (stereo not drawn) [Example 40, N-(2-(7-oxa-1-azaspiro[4.4]non-3-en-4-yl)thieno[2,3-b]pyridin-4-yl)benzo[d]thiazol-5-amine]
2 | ≤ 10 | CCN1CCC(c2cc3c(Nc4ccc5scnc5c4)ccnc3s2)C1(C)C (stereo not drawn) [Example 37, N-(2-(1-ethyl-2,2-dimethylpyrrolidin-3-yl)thieno[2,3-b]pyridin-4-yl)benzo[d]thiazol-5-amine]
3 | ≤ 10 | CN1CC=C(c2cc3c(Nc4ccc5scnc5c4)ccnc3s2)C1(C)C [Example 34, N-(2-(1,2,2-trimethyl-2,5-dihydro-1H-pyrrol-3-yl)thieno[2,3-b]pyridin-4-yl)benzo[d]thiazol-5-amine]
4 | ≤ 10 | CC1(C)NCCC1c1cc2c(Nc3cc4ncsc4cc3F)ccnc2s1 (stereo not drawn) [Example 78a, N-(2-(2,2-dimethylpyrrolidin-3-yl)thieno[2,3-b]pyridin-4-yl)-6-fluorobenzo[d]thiazol-5-amine]
5 | 10 to 20 | CN1CCC(c2cc3c(Nc4ccc5scnc5c4)ccnc3s2)C1(C)C (stereo not drawn) [Example 35, N-(2-(1,2,2-trimethylpyrrolidin-3-yl)thieno[2,3-b]pyridin-4-yl)benzo[d]thiazol-5-amine]
6 | ≤ 10 | C[C@@H]1[C@H](c2cc3c(Nc4c(F)cc5scnc5c4F)ccnc3s2)CCCN1C [Example 70b, N-(2-((2R,3R)-1,2-dimethylpiperidin-3-yl)thieno[2,3-b]pyridin-4-yl)-4,6-difluorobenzo[d]-thiazol-5-amine]
7 | 10 to 20 | C[C@H]1NCCC=C1c1cc2c(Nc3cc4ncsc4cc3F)ccnc2s1 [Example 49a, 6-fluoro-N-(2-(2-methyl-1,2,5,6-tetrahydropyridin-3-yl)thieno[2,3-b]pyridin-4-yl)benzo[d]thiazol-5-amine]
8 | 10 to 20 | CC1NCCCC1c1cc2c(Nc3c(F)cc4scnc4c3F)c(F)cnc2s1 (single isomer, unassigned) [Example 126d, 4,6-difluoro-N-(5-fluoro-2-(2-methylpiperidin-3-yl)thieno[2,3-b]pyridin-4-yl)benzo[d]thiazol-5-amine]
9 | ≤ 10 | CC1C(c2cc3c(Nc4ccc5scnc5c4)c(F)cnc3s2)CCCN1C (single isomer, unassigned) [Example 120c, N-(2-(1,2-dimethylpiperidin-3-yl)-5-fluorothieno[2,3-b]pyridin-4-yl)benzo[d]-thiazol-5-amine]
10 | 10 to 20 | CCN1CCC=C(c2cc3c(Nc4cc5ncsc5cc4F)ccnc3s2)[C@H]1C [Example 52a, N-(2-(1-ethyl-2-methyl-1,2,5,6-tetrahydropyridin-3-yl)thieno[2,3-b]pyridin-4-yl)-6-fluorobenzo[d]thiazol-5-amine]
11 | ≤ 10 | CCN1CCC(c2cc3c(Nc4c(F)cc5scnc5c4F)ccnc3s2)C1C (stereo not drawn) [Example 94, N-(2-(1-ethyl-2-methylpyrrolidin-3-yl)thieno[2,3-b]pyridin-4-yl)-4,6-difluorobenzo[d]thiazol-5-amine]
12 | 20 to 50 | CN1CCC(c2cc3c(Nc4ccc5scnc5c4)ccnc3s2)C12CCOC2 (stereo not drawn) [Example 43, N-(2-(1-methyl-7-oxa-1-azaspiro[4.4]nonan-4-yl)thieno[2,3-b]pyridin-4-yl)benzo[d]thiazol-5-amine]
13 | ≤ 10 | CCN1CCC=C(c2cc3c(Nc4c(F)cc5scnc5c4F)ccnc3s2)[C@@H]1C [Example 72b, (S)—N-(2-(1-ethyl-2-methyl-1,2,5,6-tetrahydropyridin-3-yl)thieno[2,3-b]pyridin-4-yl)-4,6-difluorobenzo[d]thiazol-5-amine]
14 | 20 to 50 | CC1(C)C(c2cc3c(Nc4cc5ncsc5cc4F)ccnc3s2)CCN1CCO (stereo not drawn) [Example 80, 2-(3-(4-((6-fluorobenzo[d]thiazol-5-yl)amino)thieno[2,3-b]pyridin-2-yl)-2,2-dimethyl-pyrrolidin-1-yl)ethan-1-ol]
15 | ≤ 10 | C[C@@H]1NCCC[C@@H]1c1cc2c(Nc3c(F)cc4scnc4c3F)ccnc2s1 [Example 68b, 4,6-difluoro-N-(2-((2S,3S)-2-methylpiperidin-3-yl)thieno[2,3-b]pyridin-4-yl)benzo[d]thiazol-5-amine]
16 | 20 to 50 | CC1C(c2cc3c(Nc4ccc5scnc5c4)c(F)cnc3s2)CCCN1C (single isomer, unassigned) [Example 120a, N-(2-(1,2-dimethylpiperidin-3-yl)-5-fluorothieno[2,3-b]pyridin-4-yl)benzo[d]-thiazol-5-amine]
17 | ≤ 10 | CCN1CCC[C@H](c2cc3c(Nc4ccc5scnc5c4F)ccnc3s2)[C@@H]1C [Example 65, N-(2-((2S,3S)-1-ethyl-2-methylpiperidin-3-yl)thieno[2,3-b]pyridin-4-yl)-4-fluorobenzo[d]thiazol-5-amine]
18 | 10 to 20 | C[C@@H]1NCCC[C@H]1c1cc2c(Nc3ccc4scnc4c3F)ccnc2s1 [Example 57a, 4-fluoro-N-(2-((2S,3R)-2-methylpiperidin-3-yl)thieno-[2,3-b]pyridin-4-yl)benzo[d]thiazol-5-amine]
19 | ≤ 10 | CC1NCCCCC1c1cc2c(Nc3cc4ncsc4cc3F)ccnc2s1 (stereo not drawn) [Example 117c]
20 | ≤ 10 | CC(C)N1CCCC(c2cc3c(Nc4ccc5scnc5c4)ccnc3s2)C1C (stereo not drawn) [Example 8, N-(2-(1-isopropyl-2-methylpiperidin-3-yl)thieno[2,3-b]pyridin-4-yl)benzo[d]thiazol-5-amine]
21 | ≥ 50 | CN1CCC(c2cc3c(Nc4cc5ncsc5cc4F)ccnc3s2)C12CCOC2 (stereo not drawn) [Example 82, 6-fluoro-N-(2-(1-methyl-7-oxa-1-azaspiro[4.4]nonan-4-yl)thieno[2,3-b]pyridin-4-yl)benzo[d]thiazol-5-amine]
22 | ≤ 10 | C[C@@H]1NCCC=C1c1cc2c(Nc3cc4ncsc4cc3F)ccnc2s1 [Example 49b, 6-fluoro-N-(2-(2-methyl-1,2,5,6-tetrahydropyridin-3-yl)thieno[2,3-b]pyridin-4-yl)benzo[d]thiazol-5-amine]
23 | ≤ 10 | CC1NCCC=C1c1cc2c(Nc3ccc4scnc4c3)ccnc2s1 (stereo not drawn) [Example 1, N-(2-(2-methyl-1,2,5,6-tetrahydropyridin-3-yl)thieno[2,3-b]pyridin-4-yl)benzo[d]thiazol-5-amine]
24 | ≤ 10 | CCN1CCC(c2cc3c(Nc4c(F)cc5scnc5c4F)ccnc3s2)C1(C)C (stereo not drawn) [Example 97, N-(2-(1-ethyl-2,2-dimethylpyrrolidin-3-yl)thieno[2,3-b]pyridin-4-yl)-4,6-difluorobenzo[d]thiazol-5-amine]
25 | 10 to 20 | CC1C(c2cc3c(Nc4c(F)cc5scnc5c4F)ccnc3s2)CCN1CCO (stereo not drawn) [Example 95, 2-(3-(4-((4,6-difluorobenzo[d]thiazol-5-yl)amino)thieno[2,3-b]pyridin-2-yl)-2-methyl-pyrrolidin-1-yl)ethan-1-ol]
26 | ≤ 10 | CC(=O)N1CCCC=C(c2cc3c(Nc4ccc5scnc5c4)ccnc3s2)C1 [Example 114, 1-(6-(4-(benzo[d]thiazol-5-ylamino)thieno[2,3-b]pyridin-2-yl)-2,3,4,7-tetrahydro-1H-azepin-1-yl)ethan-1-one]
27 | ≤ 10 | CC1(C)C(c2cc3c(Nc4ccc5scnc5c4)ccnc3s2)CCN1CCO (stereo not drawn) [Example 38, 2-(3-(4-(benzo[d]thiazol-5-ylamino)thieno[2,3-b]pyridin-2-yl)-2,2-dimethylpyrrolidin-1-yl)ethan-1-ol]
